For 1 compound, IC50 results are on record in PMC12192500, “Selective Dual Inhibition of TNKS1 and CDK8 by TCS9725 Attenuates STAT1/β-Catenin/TGFβ1 Signaling in Renal Cancer” (Current Issues in Molecular Biology, 2025).

In assay [1] the target is T1, TNKS1 (Tankyrase 1, PARP5A) (Homo sapiens, UniProt O95271).
T1 construct: gene TNKS
Kind of assay: TNKS1 colorimetric PARP activity assay kit (BPS #[…]), histone-coated plate. The format is biochemical.

Assay [2] deals with CDK8 (Cyclin-dependent kinase 8) (Homo sapiens, UniProt P49336). Kind of assay: luminescence-based kinase assay. It counts as biochemical.
CDK8 (Cyclin-dependent kinase 8), sequence (P49336 whole entry): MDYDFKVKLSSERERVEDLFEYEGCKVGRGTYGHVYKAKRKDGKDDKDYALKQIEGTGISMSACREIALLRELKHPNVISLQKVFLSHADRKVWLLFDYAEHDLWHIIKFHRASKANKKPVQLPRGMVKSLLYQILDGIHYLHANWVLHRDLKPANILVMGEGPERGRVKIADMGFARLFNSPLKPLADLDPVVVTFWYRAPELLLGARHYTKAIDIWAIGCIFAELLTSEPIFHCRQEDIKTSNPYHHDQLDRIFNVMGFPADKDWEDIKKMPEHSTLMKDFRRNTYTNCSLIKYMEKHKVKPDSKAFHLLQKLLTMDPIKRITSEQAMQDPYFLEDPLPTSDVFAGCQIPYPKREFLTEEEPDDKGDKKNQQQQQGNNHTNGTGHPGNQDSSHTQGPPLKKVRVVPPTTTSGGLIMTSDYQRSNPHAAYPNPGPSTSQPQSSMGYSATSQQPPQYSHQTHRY

T1 sequence (O95271 whole entry): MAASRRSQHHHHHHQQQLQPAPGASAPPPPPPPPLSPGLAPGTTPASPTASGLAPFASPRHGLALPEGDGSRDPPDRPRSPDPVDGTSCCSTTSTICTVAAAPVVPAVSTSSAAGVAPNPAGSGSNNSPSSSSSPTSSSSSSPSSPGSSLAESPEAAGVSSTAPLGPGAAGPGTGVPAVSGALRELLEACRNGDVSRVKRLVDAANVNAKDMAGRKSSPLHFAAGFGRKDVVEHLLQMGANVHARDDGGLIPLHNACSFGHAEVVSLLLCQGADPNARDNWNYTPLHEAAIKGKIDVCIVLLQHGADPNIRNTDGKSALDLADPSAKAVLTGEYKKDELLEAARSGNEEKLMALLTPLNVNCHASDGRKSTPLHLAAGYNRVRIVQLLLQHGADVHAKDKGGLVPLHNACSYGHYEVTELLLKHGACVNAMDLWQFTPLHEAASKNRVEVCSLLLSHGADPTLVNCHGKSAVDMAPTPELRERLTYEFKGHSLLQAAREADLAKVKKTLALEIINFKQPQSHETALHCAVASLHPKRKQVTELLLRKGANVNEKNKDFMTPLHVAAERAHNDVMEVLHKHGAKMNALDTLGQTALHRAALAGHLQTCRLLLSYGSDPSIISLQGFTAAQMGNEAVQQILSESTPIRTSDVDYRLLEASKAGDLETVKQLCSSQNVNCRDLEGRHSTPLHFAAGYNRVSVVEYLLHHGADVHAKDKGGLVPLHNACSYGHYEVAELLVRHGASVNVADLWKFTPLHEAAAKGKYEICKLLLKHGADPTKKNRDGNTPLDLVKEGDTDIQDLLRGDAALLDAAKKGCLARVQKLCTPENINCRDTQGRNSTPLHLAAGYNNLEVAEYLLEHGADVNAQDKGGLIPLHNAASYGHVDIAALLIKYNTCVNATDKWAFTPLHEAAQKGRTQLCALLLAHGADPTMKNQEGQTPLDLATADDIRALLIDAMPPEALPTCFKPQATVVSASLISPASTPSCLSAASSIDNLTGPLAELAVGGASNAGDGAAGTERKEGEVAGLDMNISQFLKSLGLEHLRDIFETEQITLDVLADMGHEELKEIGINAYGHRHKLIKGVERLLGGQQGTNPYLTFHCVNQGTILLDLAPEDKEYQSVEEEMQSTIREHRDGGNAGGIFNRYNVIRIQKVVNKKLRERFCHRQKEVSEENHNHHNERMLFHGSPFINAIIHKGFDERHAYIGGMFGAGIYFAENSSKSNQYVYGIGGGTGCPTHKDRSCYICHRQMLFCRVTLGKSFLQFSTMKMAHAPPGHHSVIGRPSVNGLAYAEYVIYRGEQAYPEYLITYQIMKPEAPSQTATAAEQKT

Usually IC50 stands for the midpoint of a concentration-inhibition curve. With `O=c1cccc(-c2ccc(Cl)cc2)o1` [TCS9725, 6-(4-chlorophenyl)-2H-pyran-2-one], the 50% inhibitory concentration (IC50) came to 0.243 µM in assay [1] and 0.404 µM in assay [2].
